Reference: patent US8580803B2, “Substituted pyrrolo-aminopyrimidine compounds” (ArQule, Inc., priority 2009, dated 2013)

How the values were obtained:
[1] = molecular target: AKT1 (Homo sapiens, UniProt P31749); assay: AKT Kinase Activity Assay (AlphaScreen, crosstide); details: Average of Akt1 biochemical assay
Procedure: AKT1 activity was assayed using the GSK3-derived biotinylated peptide substrate, crosstide (biotin-GRPRTSSFAEG), and AlphaScreen™ (Amplified Luminescent Proximity Homogeneous Assay) technology. AKT1 activation was achieved by the addition of the activating kinases PDK1 and MAPKAPK2, lipid vesicles, and ATP. The extent of peptide phosphorylation was determined using a phospho-AKT substrate antibody and acceptor beads conjugated to Protein A and donor beads conjugated to streptavidin that bind to the biotin on the peptide. Excitation of the donor beads converted ambient oxygen to excited singlet oxygen which, when in close proximity to acceptor beads, reacted with acceptor beads resulting in signal amplification.
Test inhibitors and controls (Abbott inhibitor, Merck pre-clinical inhibitor, and Merck clinical inhibitor) were prepared in 10% DMSO at 10-fold the desired final concentration, and added to each well of a reaction plate (Corning 96-well half-area solid white nonbinding surface plate) in a volume of 2.5 μL. […] After a 20 minute pre-incubation at room temperature, the kinase reaction was initiated by the addition of 5 μL of an activation mixture diluted in assay buffer containing biotinylated crosstide, PDK1, MAPKAPK2, DOPS/DOPC, PtdIns(3,4,5)P3, and ATP for final concentrations of 60 nM biotinylated crosstide, 0.1 nM PDK1, 0.7 nM MK2, 5.5 μM DOPS, 5.5 μM DOPC, 0.5 μM PtdIns(3,4,5)P3, and 50 μM ATP. The plates were incubated for 30 minutes at room temperature, and then stopped in the dark by the addition of 10 μL stop/detection mixture prepared in assay buffer containing EDTA, AlphaScreen™ Streptavidin Donor and Protein A Acceptor beads, and phospho-AKT substrate antibody for final concentrations of 10 mM EDTA, 500 ng/well of both AlphaScreen™ Streptavidin Donor beads and Protein A Acceptor beads, and phospho-AKT substrate antibody at a final dilution of 1:350. Assay plates were incubated for 90 minutes at room temperature in the dark, and the plates were read on a Perkin Elmer Envision Multilabel plate reader ([…]).

[2] = molecular target: T1, ACK1 (110-489) (Homo sapiens, UniProt Q07912); assay: ACK1 Activity Assay (AlphaScreen, PYK2-derived peptide); assay type: biochemical
T1 construct: ACK1 110-489 (12.5 μl) were added to each well
T1 sequence (Q07912 110-489, species assumed): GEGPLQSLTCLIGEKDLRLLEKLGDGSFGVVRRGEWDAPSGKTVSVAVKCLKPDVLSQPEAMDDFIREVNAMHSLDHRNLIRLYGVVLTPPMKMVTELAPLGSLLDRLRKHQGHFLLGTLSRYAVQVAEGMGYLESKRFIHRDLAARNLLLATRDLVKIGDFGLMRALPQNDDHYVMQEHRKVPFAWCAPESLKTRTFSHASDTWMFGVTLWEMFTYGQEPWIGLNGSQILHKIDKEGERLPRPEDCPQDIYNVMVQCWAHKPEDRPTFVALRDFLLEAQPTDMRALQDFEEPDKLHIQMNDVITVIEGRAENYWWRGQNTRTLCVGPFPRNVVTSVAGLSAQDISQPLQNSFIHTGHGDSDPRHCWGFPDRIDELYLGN
Procedure: The extent of peptide phosphorylation was determined by using acceptor beads conjugated to phosphotyrosine antibody that recognizes the phosphorylated peptide and donor beads conjugated to streptavidin that binds to the biotin on the peptide. Excitation of the donor beads converted ambient oxygen to excited singlet oxygen which when in close proximity to acceptor beads, reacted with acceptor beads where the signal was amplified.
Test inhibitors and controls (N-(2,6-dimethylphenyl)-4-(2-ethoxyphenoxy)-2-[(4-piperazin-1-ylphenyl)amino]pyrimidine-5-carboxamide) were prepared in 10% DMSO at 10× the desired final concentration. […] After a 20-min incubation at room temperature, the kinase reaction was initiated by the addition of 10 μl of PYK2/ATP mixture. […] The plates were incubated for 60 min at room temperature. The reaction was stopped by the addition of 10 μl stop/detection mixture which contains EDTA (final concentration is 10 mM), AlphaScreen™ Streptavidin Donor beads (final concentration is 500 ng/well) and AlphaScreen™ Phospho-tyrosine (P-Tyr-100) Acceptor beads (final concentration is 500 ng/well) were diluted in assay buffer. This reagent addition step was performed in the dark because the AlphaScreen™ beads are light-sensitive. The plate was incubated for 60 min at room temperature in the dark and the plates were read on the Perkin Elmer Envision Multilabel plate reader ([…]).

Chain of AKT1 (P31749 whole entry): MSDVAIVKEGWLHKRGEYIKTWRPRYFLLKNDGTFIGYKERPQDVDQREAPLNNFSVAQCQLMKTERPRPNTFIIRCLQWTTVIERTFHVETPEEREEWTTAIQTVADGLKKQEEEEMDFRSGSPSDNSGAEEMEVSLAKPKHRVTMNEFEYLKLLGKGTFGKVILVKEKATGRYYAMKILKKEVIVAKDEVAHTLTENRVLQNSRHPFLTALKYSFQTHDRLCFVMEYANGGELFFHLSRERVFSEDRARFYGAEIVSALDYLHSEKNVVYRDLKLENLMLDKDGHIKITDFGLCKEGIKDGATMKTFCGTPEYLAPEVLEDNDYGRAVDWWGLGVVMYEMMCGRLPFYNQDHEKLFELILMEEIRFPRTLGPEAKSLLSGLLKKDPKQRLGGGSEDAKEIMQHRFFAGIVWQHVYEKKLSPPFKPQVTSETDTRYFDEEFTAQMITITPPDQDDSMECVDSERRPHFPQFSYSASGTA

| SMILES | melting point [°C] | IC50 [1] [nM] | IC50 [2] [nM] |
| --- | --- | --- | --- |
| CCOC(=O)c1cccc(Nc2ncnc3[nH]cc(C(=O)c4ccccc4)c23)c1 | 256 to 258 | – | – |
| O=C(Nc1ccccc1)c1cccc(Nc2ncnc3[nH]cc(C(=O)c4ccccc4)c23)c1 | > 300 | – | – |
| CC(C)(C)OC(=O)Nc1cccc(Nc2ncnc3[nH]cc(C(=O)c4ccccc4)c23)c1 | 288 to 290 | – | – |
| CNC(=O)c1cccc(Nc2ncnc3[nH]cc(C(=O)c4ccc(Cl)cc4)c23)c1 | > 300 | – | – |
| Nc1cccc(Nc2ncnc3[nH]cc(C(=O)c4ccccc4)c23)c1 | 280 to 282 | – | – |
| O=C(Nc1cccc(Nc2ncnc3[nH]cc(C(=O)c4ccccc4)c23)c1)c1ccccc1 | > 300 | – | – |
| O=C(Cc1cncc(Br)c1)Nc1cccc(Nc2ncnc3[nH]cc(C(=O)c4ccccc4)c23)c1 | > 300 | – | – |
| NCc1ccc(Nc2ncnc3[nH]cc(C(=O)c4ccccc4)c23)cc1 | 255 to 257 | – | – |
| O=C(Nc1ccccc1)Nc1cccc(Nc2ncnc3[nH]cc(C(=O)c4ccccc4)c23)c1 | > 300 | – | – |
| Cn1cc(C(=O)c2ccccc2)c2c(Nc3cccc(N)c3)ncnc21 | 170 to 173 | – | – |
| O=C(NCC1CCCCC1)Nc1cccc(Nc2ncnc3[nH]cc(C(=O)c4ccccc4)c23)c1 | 180 to 182 | – | – |
| CC(C)(C)NC(=O)Nc1cccc(Nc2ncnc3[nH]cc(C(=O)c4ccccc4)c23)c1 | 185 to 187 | – | – |
| CCNC(=O)Nc1cccc(Nc2ncnc3[nH]cc(C(=O)c4ccccc4)c23)c1 | 183 to 185 | – | – |
| O=C(c1ccccc1)c1c[nH]c2ncnc(Nc3cccc(CO)c3)c12 | 273 to 275 | – | – |
| CC(C)(C)OC(=O)NCc1cccc(Nc2ncnc3[nH]cc(C(=O)c4ccccc4)c23)c1 | 210 to 212 | – | – |
| CNC(=O)c1cccc(Nc2ncnc3[nH]cc(C(=O)c4ccccc4C)c23)c1 | > 300 | – | – |
| CNC(=O)c1cccc(Nc2ncnc3[nH]cc(C(=O)c4cccc5ccccc45)c23)c1 | > 300 | – | – |
| CC(=O)Nc1cccc(Nc2ncnc3[nH]cc(C(=O)c4cccc5ccccc45)c23)c1 | > 300 | – | – |
| CC(=O)Nc1ccc(Nc2ncnc3[nH]cc(C(=O)c4ccccc4)c23)cc1 | 263 to 264 | – | – |
| CC(C)(C)OC(=O)Nc1ccc(Nc2ncnc3[nH]cc(C(=O)c4ccccc4)c23)cc1 | 274 to 280 | – | – |
| Nc1cccc(Nc2ncnc3[nH]cc(C(=O)c4ccccc4)c23)n1 | > 300 | – | – |

| SMILES | melting point [°C] | IC50 [1] [nM] | IC50 [2] [nM] |
| --- | --- | --- | --- |
| Cn1cc(CC(=O)Nc2cccc(Nc3ncnc4[nH]cc(C(=O)c5ccccc5)c34)c2)c2ccccc21 [2-(1-methyl-1H-indol-3-yl)-N-(3-{[5-(phenylcarbonyl)-7H-pyrrolo[2,3-d]pyrimidin-4-yl]amino}phenyl)acetamide] | – | 3090 | – |
| CC(=O)NCC(=O)Nc1cccc(Nc2ncnc3[nH]cc(C(=O)c4ccccc4)c23)c1 [2-acetamido-N-(3-((5-benzoyl-7H-pyrrolo[2,3-d]pyrimidin-4-yl)amino)phenyl)acetamide] | – | 94.9 | 666 |
| CNC(=O)c1cccc(Nc2ncnc3[nH]cc(C(=O)c4ccccc4)c23)c1 [3-((5-benzoyl-7H-pyrrolo[2,3-d]pyrimidin-4-yl)amino)-N-methylbenzamide] | – | 5120 | – |
| O=C(O)c1cccc(Nc2ncnc3[nH]cc(C(=O)c4ccccc4)c23)c1 [3-[(5-benzo-7H-pyrrolo[2,3-d]pyrimidin-4-yl)amino]benzoic acid] | – | 3000 | 2190 |
| CN1CCC(NC(=O)c2cccc(Nc3ncnc4[nH]cc(C(=O)c5ccccc5)c34)c2)CC1 [3-[(5-benzoyl-7H-pyrrolo[2,3-d]pyrimidin-4-yl)amino]-N-(1-methylpiperidin-4-yl)benzamide] | – | 1440 | 592 |
| O=C(NCCCN1CCCC1)c1cccc(Nc2ncnc3[nH]cc(C(=O)c4ccccc4)c23)c1 [3-[(5-benzoyl-7H-pyrrolo[2,3-d]pyrimidin-4-yl)amino]-N-(3-pyrrolidin-1-ylpropyl)benzamide] | – | 899 | 1200 |
| O=C(NCCCCN1CCCC1)c1cccc(Nc2ncnc3[nH]cc(C(=O)c4ccccc4)c23)c1 [3-[(5-benzoyl-7H-pyrrolo[2,3-d]pyrimidin-4-yl)amino]-N-(4-pyrrolidin-1-ylbutyl)benzamide] | – | 676 | 2170 |
| CN(C)CCCNC(=O)c1cccc(Nc2ncnc3[nH]cc(C(=O)c4ccccc4)c23)c1 [3-[(5-benzoyl-7H-pyrrolo[2,3-d]pyrimidin-4-yl)amino]-N-[3-(dimethylamino)propyl]benzamide] | – | 674 | 486 |
| CC(=O)NCCC(=O)Nc1cccc(Nc2ncnc3[nH]cc(C(=O)c4ccccc4)c23)c1 [3-acetamido-N-(3-((5-benzoyl-7H-pyrrolo[2,3-d]pyrimidin-4-yl)amino)phenyl)propanamide] | – | 264 | 1340 |
| O=C(Nc1cccc(Nc2ncnc3[nH]cc(C(=O)c4ccccc4)c23)c1)c1ccc(Cl)cc1 [4-chloro-N-(3-{[5-(phenylcarbonyl)-7H-pyrrolo[2,3-d]pyrimidin-4-yl]amino}phenyl)benzamide] | – | 5130 | 15700 |
| CN(C)CC(=O)Nc1cccc(Nc2ncnc3[nH]cc(C(=O)c4ccccc4)c23)c1 [N,N-dimethyl-N-(3-{[5-(phenylcarbonyl)-7H-pyrrolo[2,3-d]pyrimidin-4-yl]amino}phenyl)glycinamide] | – | 1120 | 672 |
| O=C(c1ccccc1)c1c[nH]c2ncnc(Nc3cccc(NC(=O)C4CCCC4)c3)c12 [N-(3-{[5-(phenylcarbonyl)-7H-pyrrolo[2,3-d]pyrimidin-4-yl]amino}phenyl) cyclopentanecarboxamide] | – | 7010 | 19000 |
| O=C(CCc1cccnc1)Nc1cccc(Nc2ncnc3[nH]cc(C(=O)c4ccccc4)c23)c1 [N-(3-{[5-(phenylcarbonyl)-7H-pyrrolo[2,3-d]pyrimidin-4-yl]amino}phenyl)-3-pyridin-3-ylpropanamide] | – | 288 | 1070 |
| NC(=O)CCC(=O)Nc1cccc(Nc2ncnc3[nH]cc(C(=O)c4ccccc4)c23)c1 [N-(3-{[5-(phenylcarbonyl)-7H-pyrrolo[2,3-d]pyrimidin-4-yl]amino}phenyl)butanediamide] | – | 1210 | 876 |
| CC(=O)Nc1cccc(Nc2ncnc3[nH]cc(C(=O)c4ccccc4)c23)c1 [N-{3-[(5-benzoyl-7H-pyrrolo[2,3-d]pyrimidin-4-yl)amino]phenyl}acetamide] | – | 2170 | 3870 |
| O=C(Nc1ccccc1)c1cccc(Nc2ncnc3[nH]cc(C(=O)c4ccccc4)c23)c1 [drawing 239, 3-[(5-benzoyl-7H-pyrrolo[2,3-d]pyrimidin-4-yl)amino]-N-phenylbenzamide] | – | 1400 | – |
| Nc1cccc(Nc2ncnc3[nH]cc(C(=O)c4ccccc4)c23)c1 [drawing 248, {4-[(3-aminophenyl)amino]-7H-pyrrolo[2,3-d]pyrimidin-5-yl}(phenyl)methanone] | – | 1250 | 415 |
| CC(=O)Nc1cccc(Nc2ncnc3c2c(C(=O)c2ccccc2)cn3C)c1 [drawing 273, N-(3-{[7-methyl-5-(phenylcarbonyl)-7H-pyrrolo[2,3-d]pyrimidin-4-yl]amino}phenyl)acetamide] | – | 2510 | – |
| NCc1cccc(Nc2ncnc3[nH]cc(C(=O)c4ccccc4)c23)c1 [drawing 278, (4-{[3-(aminomethyl)phenyl]amino}-7H-pyrrolo[2,3-d]pyrimidin-5-yl)(phenyl) methanone] | – | 186 | – |
| Nc1ccc(Nc2ncnc3[nH]cc(C(=O)c4ccccc4)c23)cc1 [{4-[(4-aminophenyl)amino]-7H-pyrrolo[2,3-d]pyrimidin-5-yl}(phenyl)methanone] | – | 2570 | 338 |
